Experimental findings from PMC10193894 (Journal of Enzyme Inhibition and Medicinal Chemistry, 2023) are described below.

The target of one experiment is SARS-CoV-2 S-RBD (Severe acute respiratory syndrome coronavirus 2, UniProt P0DTC2). As to the kind of experiment: biochemical. Type of experiment: binding.
For experiment [1], the target named is T1, NRP1-BD (the b1 domain of NRP1) (Homo sapiens, UniProt O14786).
T1 construct: NRP1-BD (the b1 domain of NRP1); purchased Abcam (Cambridge, MA, USA)
T1 sequence (O14786 275-424 limits assumed): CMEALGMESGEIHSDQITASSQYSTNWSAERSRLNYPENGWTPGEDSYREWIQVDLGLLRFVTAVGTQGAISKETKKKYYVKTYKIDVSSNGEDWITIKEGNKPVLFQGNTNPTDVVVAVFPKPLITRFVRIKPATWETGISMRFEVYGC
Put plainly: Microscale thermophoresis (MST) binding to NRP1-BD. The note with it: mean ± SD (n = 3). (In general: Microscale thermophoresis detects binding through changes in fluorescence in a small temperature gradient.)

For a further experiment, the system named is SARS-CoV-2 pseudovirus. The note with it: for inhibition rate on pseudotyped SARS-CoV-2 infection: 3.2 µM.
The mark [2] stands for this setting: read-out: EC50 against pseudotyped SARS-CoV-2 infection.

Entries after “also recorded” stand apart in the source; their conditions may differ. Where two headings read alike, the source gives them in different places. Ends that are not written are not given here.

Broadly, the Kd is the constant that tells how readily two partners part at equilibrium. By EC50 is commonly meant the midpoint of the concentration-response curve.

As for `NC(N)=NCCC[C@H](NC(=O)c1sccc1NS(=O)(=O)c1cccc2nsnc12)C(=O)O` [EG00229], the “S-RBD Kd” value at SARS-CoV-2 S-RBD is “no binding; also recorded: without binding”. In addition, binding in experiment [1] (value in μM) was put at a Kd of 4.9 ± 0.7 µM. For the same molecule, the “inhibition rate on pseudotyped SARS-CoV-2 infection” value in the experiment on SARS-CoV-2 pseudovirus amounted to 15%. The EC50 in the experiment on SARS-CoV-2 pseudovirus (setting [2]) is over 20000 nM.
In turn, “Ac-QNKVYIDKYNHEAQDLFYQSALKAHRGNRRAR [RN-1]” displayed a Kd on SARS-CoV-2 S-RBD of 19.9 ± 1.4 nM. The EC50 with SARS-CoV-2 pseudovirus (pseudovirus, 48 h) stood at 1980 ± 370 nM.
For “Ac-QRNIYLDRHNHEAEDLKYQTALASFRPAKPAR [RN-3]” the same measures were 95.3 ± 2.9 nM and 2870 ± 180 nM.
At SARS-CoV-2 S-RBD, “Ac-EARTFLDKYNHEAEDLYYQSSLASWGSPRRAR [RN-4]” had a Kd of 7.4 ± 0.5 nM. Also, the EC50 in the experiment with SARS-CoV-2 pseudovirus (pseudovirus, 48 h) was determined as 390 ± 90 nM.
For “Ac-EKSTLKDRFNHEAQDLKYQDSLASYRGKRPPR [RN-2]”, the Kd on SARS-CoV-2 S-RBD came out at 65.3 ± 2.2 nM. Further, the midpoint of the response in the experiment on SARS-CoV-2 pseudovirus (pseudovirus, 48 h), the EC50, lay at 2370 ± 420 nM.
As to `C[C@@]1(C(=O)O)CC[C@]2(C)CC[C@]3(C)C4=CC(=O)c5c(cc(O)c(O)c5C=O)[C@]4(C)CC[C@@]3(C)[C@@H]2C1` [T-96, demethylzeylasteral], at SARS-CoV-2 S-RBD (read-out: S-RBD Kd), the Kd is 998.6 ± 8.4 nM. For the same molecule, in experiment [1], the “NRP1-BD Kd” value was “no binding; also recorded: without binding”. For the same molecule, the “inhibition rate on pseudotyped SARS-CoV-2 infection” value in the experiment with SARS-CoV-2 pseudovirus was “about 40%”. In addition, the EC50 in the experiment on SARS-CoV-2 pseudovirus (setting [2]) worked out at 5420 nM.
In the case of “Ac-ETQVLLDKLNHEAEDLKYQSALASHRVRRPPR [RN-5]”, on SARS-CoV-2 S-RBD, the affinity, expressed as Kd, was 207 ± 4.5 nM. Moreover, a half-maximal effect with SARS-CoV-2 pseudovirus (pseudovirus, 48 h) (EC50) was put at 3720 ± 890 nM.
